Experimental findings from patent US20060142269A1, “New compounds” (priority 2004, published 2006) are described below.

In assay [1] the target is T1, human 5-HT6 receptor (Homo sapiens, UniProt P50406).
T1 construct: expressed in transfected cells; host or cells: HEK293 (G-418 selected)
Briefly: 5-HT6 receptor intrinsic activity assay (inhibition of 5-HT induced increase in cAMP in HEK293/5-HT6 cells). The class given is cell-based. The conditions noted are these: read-out: Antagonist potency at the human 5-HT6 receptor, IC50,corr. The protocol:
(1997) Neuropharmacology 36: 713-720). Briefly, HEK293/5-HT6 cells were seeded in polylysine coated 96-well plates at a density of 25,000/well and grown in DMEM (Dulbecco's Modified Eagle Medium) (without phenol-red) containing 5% dialyzed Foetal Bovine Serum for 48 h at 37° C. in a 5% CO2 incubator. The medium was then aspirated and replaced by 0.1 ml assay medium (Hanks Balance Salt Solution containing 20 mM HEPES, 1.5 mM isobutylmethylxanthine and 1 mg/ml bovine serum albumin). After addition of test substances, 50 μl dissolved in assay medium, the cells were incubated for 10 min at 37° C. in a 5% CO2 incubator. The medium was again aspirated and the cAMP content was determined using a radioactive cAMP kit (Amersham Pharmacia Biotech, BIOTRAK RPA559).

Assay [2] has as its target T1, human 5-HT6 receptor. Briefly: 5-HT6 receptor binding assay ([3H]-LSD displacement, SPA, membranes of transfected HEK293 cells).
Where [3] appears, read: [3H]LSD 3 nM, HEK293 membranes, read-out: Binding affinity (Ki) at the human 5-HT6 receptor.

SMILES strings stand for the structures. pIC50, pKi: −log10 of the molar value. Structures can show the parent of a compound that is named as a salt. Where two headings read alike, the source gives them in different places.

T1 sequence (P50406 whole entry): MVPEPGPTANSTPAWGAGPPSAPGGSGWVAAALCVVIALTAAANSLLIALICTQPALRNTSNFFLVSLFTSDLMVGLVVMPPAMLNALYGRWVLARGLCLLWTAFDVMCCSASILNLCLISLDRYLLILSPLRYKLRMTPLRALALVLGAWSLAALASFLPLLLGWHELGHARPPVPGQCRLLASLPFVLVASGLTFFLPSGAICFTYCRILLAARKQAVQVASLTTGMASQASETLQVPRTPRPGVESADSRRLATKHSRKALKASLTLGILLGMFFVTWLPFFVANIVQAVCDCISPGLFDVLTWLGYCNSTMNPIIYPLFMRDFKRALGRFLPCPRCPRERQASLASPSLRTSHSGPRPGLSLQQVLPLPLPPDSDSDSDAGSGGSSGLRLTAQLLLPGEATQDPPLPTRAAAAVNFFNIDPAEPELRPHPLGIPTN

In the case of `C[C@@H]1CN(Cc2cc(S(=O)(=O)Oc3ccccc3C(N)=O)cc3ccoc23)CCN1` [Example 16, 2-(Aminocarbonyl)phenyl 7-{[(3R)-3-methylpiperazin-1-yl]methyl}-1-benzofuran-5-sulfonate bis(trifluoroacetate)], the negative logarithm of the IC50 (pIC50) at human 5-HT6 receptor [1] is 6.70.

Turning to `O=S(=O)(Oc1ccccc1Cl)c1cc(N2CCNCC2)c2occc2c1` [Example 2, 2-Chlorophenyl 7-piperazin-1-yl-1-benzofuran-5-sulfonate, trifluoroacetate], on human 5-HT6 receptor [2] (setting [3]), the negative-log Ki (pKi) was 8.64. In addition, on human 5-HT6 receptor [1], the pIC50 is 7.62. `CC[C@@H](CO)NC(=O)[C@@H]1C=C2c3cccc4c3c(cn4C)C[C@H]2N(C)C1` [methysergide] had a pKi on human 5-HT6 receptor [2] of 6.32.

In the case of `COc1ccc(C)cc1OS(=O)(=O)c1cc(N2CCNCC2)c2occc2c1` [Example 1, 2-Methoxy-5-methylphenyl 7-piperazin-1-yl-1-benzofuran-5-sulfonate, trifluoroacetate], the pKi at human 5-HT6 receptor [2] (setting [3]) was 9.22. Consider `COc1ccc(C)cc1OS(=O)(=O)c1cc(CN2CCN(C)CC2)c2occc2c1` [Example 5, 2-Methoxy-5-methylphenyl 7-[(4-methylpiperazin-1-yl)methyl]-1-benzofuran-5-sulfonate bis(trifluoroacetate)], for which the negative-log IC50 (pIC50) at human 5-HT6 receptor [1] was 7.31.

On to `CN1CCN(c2cc(S(=O)(=O)Oc3cccnc3)cc3ccoc23)CC1` [Example 7, Pyridin-3-yl 7-(4-methylpiperazin-1-yl)-1-benzofuran-5-sulfonate trifluoroacetate], for which the negative logarithm of the IC50 (pIC50) at human 5-HT6 receptor [1] was 7.14. On to `CN1C[C@@H](NS(=O)(=O)N(C)C)C[C@@H]2c3cccc4c3c(cn4C)C[C@H]21` [mesulergide], for which the pKi on human 5-HT6 receptor [2] (over all average, 5-HT tested against two different membrane preparations, read-out: Ki value, inhibition of [3H]LSD binding (rank order of potency of unlabelled ligands)) was 5.71. For `COc1cccc(OS(=O)(=O)c2cc(N3CCN[C@H](C)C3)c3occc3c2)c1OC` [Example 9, 2,3-Dimethoxyphenyl 7-[(3R)-3-methylpiperazin-1-yl]-1-benzofuran-5-sulfonate trifluoroacetate], at human 5-HT6 receptor [1], the negative-log IC50 (pIC50) was 7.31. In the case of `NCCc1c[nH]c2ccc(O)cc12` [Example 5-HT, 5-hydroxytryptamine], the Hill coefficient at human 5-HT6 receptor [2] (over three experiments) is 0.94 (SD 0.09).

For `COc1ccc(C)cc1OS(=O)(=O)c1cc(CN2CCCNCC2)c2occc2c1` [Example 18, 2-Methoxy-5-methylphenyl 7-(1,4-diazepan-1-ylmethyl)-1-benzofuran-5-sulfonate trifluoroacetate], the negative-log IC50 (pIC50) at human 5-HT6 receptor [1] is 6.31.

On to `O=S(=O)(Oc1ccccc1C(F)(F)F)c1cc(N2CCNCC2)c2occc2c1` [Example 3, 2-(Trifluoromethyl)phenyl 7-piperazin-1-yl-1-benzofuran-5-sulfonate, trifluoroacetate], for which the negative logarithm of the Ki (pKi) on human 5-HT6 receptor [2] (setting [3]) was 8.70.

As a reminder, the pIC50 is the IC50 on a negative log10 scale, so that one unit is a factor of ten. By pKi is commonly meant the Ki on a negative log10 scale, so that one unit is a factor of ten.
